From patent US7956062B2, “Reactive oxygen generating enzyme inhibitor with nitric oxide bioactivity and uses thereof” (Duke University, priority 2004, dated 2011) come the findings set out here.

Assay [1] has as its system Isolated cardiac myocytes from nNOS deficient rats. Description: Isolated cardiac myocytes: sarcomere length and systolic calcium transient responses. The format is cell-based. The note with it: versus baseline; for sarcomere length (SL), a measure of myocardial contraction (% change from baseline): FIG. 1A; for systolic calcium transient (% change from baseline): FIG. 1B. As for the experimental part: Isolated cardiac myocytes from nNOS deficient rats (known to have increased xanthine oxidase activity), were evaluated for responses at baseline (BL or bl), then to allopurinol, then to nitrated allopurinol. The concentration of allopurinol used was 0.5×10^−3 M. The concentration of nitrated allopurinol used was 10^−4M. Evaluation was carried out for sarcomere length (SL), a measure of myocardial contraction, and for systolic calcium transient which drives myocardial contraction. The results for evaluation of sarcomere length are shown in FIG. 1A and results for evaluation of systolic calcium transient are shown in FIG. 1B.

The subject of the next assay is Parkinson's disease. Description: Patient case, Parkinson's disease (Working Example X). In kind it is in vivo. The note with it: 300 mg/day; after three weeks; treated with L-dopa. An excerpt: A person with Parkinson's disease treated with L-dopa has persistent tremor and motor problems.
For a further assay, the system named is sickle cell disease. Description: Patient case, sickle cell disease (Working Example V). In kind it is in vivo. The note with it: 300 mg/day, over the following year. As for the experimental part: A person with sickle cell disease presents with pulmonary hypertension and LFT abnormalities. They had had four admissions to the emergency in the past year with painful crisis. They are begun n 300 mg/day of nitrated allopurinol (16) with a decrease in their pulmonary artery pressure over the following year from a mean of 35 mm Hg to 30 mm Hg.

For another assay, the system named is class 3 angina. Briefly: Patient case, class 3 angina (Working Example III). In kind it is in vivo. The note with it: 300 mg/day; over two weeks; class 3 before treatment. As for the experimental part: A person with class 3 angina is begun on nitrated allopurinol (16), 300 mg/day.
In assay [2] the test system is congestive heart failure and a dilated cardiomyopathy. Description: Patient case, congestive heart failure and dilated cardiomyopathy (Working Example IX). In kind it is in vivo. As to conditions: 300 mg POQD, one week later. How it is done: A person with congestive heart failure and a dilated cardiomyopathy is begun on nitrated allopurinol (16), 300 mg POQD. One week later, their ejection fraction had improved from 35% to 40%, their blood pressure had decreased from 130/80 to 110/80, and […] pO2 has improved from 70 to 80 mm Hg on room air.

Assay [3] deals with bleomycin-induced lung injury. Description: Patient case, bleomycin-induced lung injury (Working Example VII). In kind it is in vivo. As to conditions: 300 PO BID; over the following week; on 50% oxygen; from 60 (on 100% oxygen). An excerpt: A person with bleomycin-induced lung injury is begun on nitrated allopurinol (16), 300 PO BID. The PO2 improves from 60 (on 100% oxygen) to 65 mm Hg on 50% oxygen over the following week.

The subject of another assay is Alzheimer's disease. Description: Patient case, Alzheimer's disease (Working Example XI). The note with it: 300 mg/day; after 3 months. The format is in vivo. As for the experimental part: A person with Alzheimer's disease is begun on 300 mg/day nitrated allopurinol (16). Their memory and cognitive function stabilizes after 3 months.
Assay [4] has as its system crush wound to their left lower extremity, ischemic for six hours. Briefly: Patient case, ischemic crush wound with revascularization (Working Example IV). In kind it is in vivo. As to conditions: emergency surgery. An excerpt: A person has a crush wound to their left lower extremity and undergoes emergency surgery.
In a further assay the test system is hyperlipidemia. Description: Patient case, hyperlipidemia with calcification of coronaries and aorta (Working Example VI). The format is in vivo. The note with it: 300 mg/day; over the following two years.
The next assay relates to dilated cardiomyopathy. Description: Patient case, dilated cardiomyopathy (Working Example II). The format is in vivo. The note with it: 300 mg PO BID, over the ensuing week. An excerpt: A person presents with a dilated cardiomyopathy and is begun on a standard regimen including ace inhibitors, diuretics, and digoxin with little improvement.
For another assay, the system named is leg pain and diabetes. Description: Patient case, leg pain and diabetes (Working Example XII). In kind it is in vivo. The note with it: 300 mg/day.
The next assay concerns ALS. Description: Patient case, ALS (Working Example XIII). The format is in vivo. The note with it: 300 mg/day; after three weeks. As for the experimental part:
A person with ALS with progressive deterioration, stabilizes after three weeks at 300 mg/day of nitrated allopurinol (16).

The test system of assay [5] is asthmatic with frequent exacerbations. Briefly: Patient case, asthma (Working Example XIV). The format is in vivo. As to conditions: 300 mg/day. As for the experimental part: A asthmatic with frequent exacerbations is begun on 300 mg/day nitrated allopurinol (16).

Consider `Oc1ncnc2[nH]ncc12` [allopurinol, reference compound], for which, in [1] (allopurinol 0.5×10^−3 M), the “sarcomere length (SL), a measure of myocardial contraction (% change from baseline)” value is on record as “rise” and the “systolic calcium transient (% change from baseline)” value is “rise”.
Regarding `O=c1c2cnn(CCCO[N+](=O)[O-])c2ncn1CCCO[N+](=O)[O-]` [nitrated allopurinol (16), 1,5-bis(3-nitrooxypropyl)-1,5-dihydro-4H-pyrazolo[3,4-d]pyrimidin-4-one], in the assay with Parkinson's disease, the “symptoms (persistent tremor and motor problems)” value is on record as “symptoms improve”. For the same compound, in the assay on sickle cell disease, the LFT abnormalities entry is reported as “resolve”. Moreover, the painful crisis entry in the assay on sickle cell disease (four admissions with painful crisis in the past year) is on record as “only one painful crisis”. Further, the “pulmonary artery pressure (mean)” value in the assay on sickle cell disease (from a mean of 35 mm Hg) is listed as 30 mm Hg. The angina classification result in the assay on class 3 angina is recorded as “improved to class 2”. Moreover, the symptoms on angina result in assay [2] was “decreased”. This compound registered an ejection fraction in assay [2] (from 35%) of 40%. Further, the blood pressure in assay [2] (from 130/80) is 110/80. For the same compound, the pO2 in assay [2] (on room air, from 70) was 80 mm Hg. For the same compound, the PO2 in assay [3] stood at 65 mm Hg. The “memory and cognitive function” value with Alzheimer's disease is on record as “stabilizes”. Further, in [1] (nitrated allopurinol 10^−4M), the “sarcomere length (SL), a measure of myocardial contraction (% change from baseline)” value is recorded as “increase obtained for nitrated allopurinol being greater than increase obtained for allopurinol” and the “systolic calcium transient (% change from baseline)” value is on record as “increase obtained for nitrated allopurinol being greater than increase obtained for allopurinol”. In [4], the “aggravation of injury following revascularization” value is on record as “no aggravation of injury following revascularization”. Besides, the “disease (calcification of coronaries and aorta)” value in the assay with hyperlipidemia is recorded as “mild regression of their disease”. Also, in the assay with dilated cardiomyopathy, the shortness of breath result is “decrease in a shortness of breath”. In addition, the left ventricular function result in the assay with dilated cardiomyopathy (on standard regimen with little improvement) is recorded as “improvement of left ventricular function”. In the assay with leg pain and diabetes, the “pain (leg pain)” value is given as “pain decreases”. The “distance they can walk” value with leg pain and diabetes (unresponsive to treatment before) is “improves”. Also, the progressive deterioration result in the assay with ALS was “stabilizes”. Further, the steroid use entry in assay [5] is “successfully tapered”.
